# Data as given in patent US11279707B2, “NEK inhibitors and methods of use” (DANA-FARBER CANCER INSTITUTE, INC., priority 2017, dated 2022).
# Experiments:
# Format in all cases: biochemical
# [1] = molecular target: T1, NEK2 (Homo sapiens, UniProt P51955); experiment: kinase inhibition, NEK2
# T1 sequence (P51955 1-445): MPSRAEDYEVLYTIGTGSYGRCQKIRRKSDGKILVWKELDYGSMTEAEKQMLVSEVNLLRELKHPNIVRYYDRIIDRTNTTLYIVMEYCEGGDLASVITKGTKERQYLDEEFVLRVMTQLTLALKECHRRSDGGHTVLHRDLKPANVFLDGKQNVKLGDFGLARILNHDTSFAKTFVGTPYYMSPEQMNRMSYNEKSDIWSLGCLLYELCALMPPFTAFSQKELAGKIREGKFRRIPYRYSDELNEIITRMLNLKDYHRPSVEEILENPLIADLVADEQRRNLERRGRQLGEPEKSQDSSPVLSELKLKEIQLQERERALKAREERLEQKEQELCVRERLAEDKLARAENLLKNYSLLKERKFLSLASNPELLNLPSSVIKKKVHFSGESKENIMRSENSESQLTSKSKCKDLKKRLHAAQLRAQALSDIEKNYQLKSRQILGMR
# [2] = molecular target: T2, NEK9 (Homo sapiens, UniProt Q8TD19); experiment: kinase inhibition, NEK9
# T2 sequence (Q8TD19 1-979): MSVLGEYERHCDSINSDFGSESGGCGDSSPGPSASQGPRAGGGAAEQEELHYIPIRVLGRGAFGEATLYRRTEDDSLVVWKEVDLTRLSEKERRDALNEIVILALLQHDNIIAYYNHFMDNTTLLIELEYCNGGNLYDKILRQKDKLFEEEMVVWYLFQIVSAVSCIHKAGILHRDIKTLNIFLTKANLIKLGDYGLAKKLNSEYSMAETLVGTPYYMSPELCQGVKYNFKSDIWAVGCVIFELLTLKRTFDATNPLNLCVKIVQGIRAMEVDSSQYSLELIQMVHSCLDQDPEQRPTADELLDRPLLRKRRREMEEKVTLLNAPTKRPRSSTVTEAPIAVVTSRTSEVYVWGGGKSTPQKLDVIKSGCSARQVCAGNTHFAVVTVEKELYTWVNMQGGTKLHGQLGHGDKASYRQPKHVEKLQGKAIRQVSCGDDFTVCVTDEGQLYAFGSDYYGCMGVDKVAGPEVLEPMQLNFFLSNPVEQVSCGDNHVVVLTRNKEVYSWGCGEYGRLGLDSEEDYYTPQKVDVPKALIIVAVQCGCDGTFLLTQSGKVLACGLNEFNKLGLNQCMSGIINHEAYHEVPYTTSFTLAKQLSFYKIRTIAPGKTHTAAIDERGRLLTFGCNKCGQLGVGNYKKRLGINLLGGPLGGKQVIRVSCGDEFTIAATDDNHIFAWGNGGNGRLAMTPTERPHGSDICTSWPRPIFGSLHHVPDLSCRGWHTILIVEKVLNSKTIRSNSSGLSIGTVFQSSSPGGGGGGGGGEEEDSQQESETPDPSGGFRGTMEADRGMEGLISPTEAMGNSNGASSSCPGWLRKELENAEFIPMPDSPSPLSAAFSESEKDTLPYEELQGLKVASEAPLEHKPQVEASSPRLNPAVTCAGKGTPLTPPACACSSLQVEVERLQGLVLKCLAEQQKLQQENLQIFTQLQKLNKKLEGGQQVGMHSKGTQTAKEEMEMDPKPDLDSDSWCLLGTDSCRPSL
# [3] = molecular target: NEK7 (Homo sapiens, UniProt Q8TDX7); experiment: kinase inhibition, NEK7
# [4] = molecular target: T3, DMPK (Homo sapiens, UniProt Q09013); experiment: kinase inhibition, DMPK
# T3 sequence (Q09013 1-629): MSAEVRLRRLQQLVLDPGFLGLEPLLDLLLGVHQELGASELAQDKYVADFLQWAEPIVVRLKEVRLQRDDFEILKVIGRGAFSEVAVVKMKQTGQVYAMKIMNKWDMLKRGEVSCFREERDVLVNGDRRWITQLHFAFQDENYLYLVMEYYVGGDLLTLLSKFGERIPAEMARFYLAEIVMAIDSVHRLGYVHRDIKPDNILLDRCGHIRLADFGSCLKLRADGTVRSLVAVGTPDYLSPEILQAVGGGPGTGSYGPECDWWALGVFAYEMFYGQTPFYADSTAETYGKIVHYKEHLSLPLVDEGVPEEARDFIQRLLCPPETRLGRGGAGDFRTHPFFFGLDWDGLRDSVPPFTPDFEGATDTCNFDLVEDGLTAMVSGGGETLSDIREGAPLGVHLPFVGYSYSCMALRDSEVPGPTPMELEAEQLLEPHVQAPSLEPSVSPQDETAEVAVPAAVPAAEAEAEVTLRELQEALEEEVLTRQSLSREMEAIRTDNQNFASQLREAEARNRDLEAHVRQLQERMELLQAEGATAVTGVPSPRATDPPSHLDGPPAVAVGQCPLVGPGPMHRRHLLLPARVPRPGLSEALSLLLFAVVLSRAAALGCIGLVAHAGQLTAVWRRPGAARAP
# [5] = molecular target: NEK6 (Homo sapiens, UniProt Q9HC98); experiment: kinase inhibition, NEK6
# [6] = molecular target: CLK; experiment: kinase inhibition, CLK
# [7] = molecular target: SLK (Homo sapiens, UniProt Q9H2G2); experiment: kinase inhibition, SLK
# Sequence of SLK (Q9H2G2 whole entry): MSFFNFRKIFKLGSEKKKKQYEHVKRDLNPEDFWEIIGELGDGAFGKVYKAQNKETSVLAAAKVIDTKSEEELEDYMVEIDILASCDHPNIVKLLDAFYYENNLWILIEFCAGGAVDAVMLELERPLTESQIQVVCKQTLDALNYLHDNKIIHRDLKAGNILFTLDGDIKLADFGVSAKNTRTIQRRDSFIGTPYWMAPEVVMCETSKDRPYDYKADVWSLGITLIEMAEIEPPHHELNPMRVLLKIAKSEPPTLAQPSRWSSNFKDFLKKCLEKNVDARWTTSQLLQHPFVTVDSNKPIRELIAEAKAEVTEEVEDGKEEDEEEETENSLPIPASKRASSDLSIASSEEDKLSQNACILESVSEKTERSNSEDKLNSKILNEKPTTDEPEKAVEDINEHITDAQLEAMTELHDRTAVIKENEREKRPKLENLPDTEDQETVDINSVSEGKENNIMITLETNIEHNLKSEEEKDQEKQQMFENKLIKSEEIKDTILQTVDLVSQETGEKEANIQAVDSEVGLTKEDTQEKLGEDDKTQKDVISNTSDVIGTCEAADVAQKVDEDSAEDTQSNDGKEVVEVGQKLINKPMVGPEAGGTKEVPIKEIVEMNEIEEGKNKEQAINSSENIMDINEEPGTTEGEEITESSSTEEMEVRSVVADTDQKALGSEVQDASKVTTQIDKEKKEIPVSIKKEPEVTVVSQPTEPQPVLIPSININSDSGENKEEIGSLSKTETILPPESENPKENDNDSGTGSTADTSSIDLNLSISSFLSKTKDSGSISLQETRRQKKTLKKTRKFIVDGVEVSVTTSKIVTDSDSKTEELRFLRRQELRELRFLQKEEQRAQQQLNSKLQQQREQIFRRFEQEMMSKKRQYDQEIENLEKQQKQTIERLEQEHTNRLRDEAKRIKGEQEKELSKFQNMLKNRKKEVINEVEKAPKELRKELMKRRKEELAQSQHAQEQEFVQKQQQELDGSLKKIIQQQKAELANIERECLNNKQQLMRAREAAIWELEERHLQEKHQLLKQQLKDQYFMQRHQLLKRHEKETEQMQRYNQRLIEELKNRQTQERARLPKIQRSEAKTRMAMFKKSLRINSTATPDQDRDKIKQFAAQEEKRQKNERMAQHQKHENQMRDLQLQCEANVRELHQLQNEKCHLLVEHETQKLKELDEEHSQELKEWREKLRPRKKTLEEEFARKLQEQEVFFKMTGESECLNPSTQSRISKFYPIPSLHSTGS
# Sequence of NEK6 (Q9HC98 whole entry, species assumed): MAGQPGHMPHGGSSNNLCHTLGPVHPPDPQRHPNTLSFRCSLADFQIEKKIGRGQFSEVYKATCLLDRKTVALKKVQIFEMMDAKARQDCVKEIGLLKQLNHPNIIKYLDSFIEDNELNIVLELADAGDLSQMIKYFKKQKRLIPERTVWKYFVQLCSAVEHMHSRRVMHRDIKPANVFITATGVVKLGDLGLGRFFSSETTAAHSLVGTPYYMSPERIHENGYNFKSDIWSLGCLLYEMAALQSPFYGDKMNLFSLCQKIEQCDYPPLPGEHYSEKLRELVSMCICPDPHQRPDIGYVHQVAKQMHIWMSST
# Sequence of NEK7 (Q8TDX7 whole entry, species assumed): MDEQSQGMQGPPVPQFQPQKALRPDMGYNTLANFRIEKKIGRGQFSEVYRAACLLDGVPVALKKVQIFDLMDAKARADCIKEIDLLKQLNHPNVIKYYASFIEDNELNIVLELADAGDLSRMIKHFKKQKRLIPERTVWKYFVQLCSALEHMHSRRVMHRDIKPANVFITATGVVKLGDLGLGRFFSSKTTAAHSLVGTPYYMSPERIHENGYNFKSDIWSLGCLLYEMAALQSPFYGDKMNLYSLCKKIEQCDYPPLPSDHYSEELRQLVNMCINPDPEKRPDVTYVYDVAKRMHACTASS
IC50 [1],IC50 [3],IC50 [4],IC50 [5],IC50 [6],IC50 [7],SMILES,IC50 [2]
50 to 250 nM,250 to 1000 nM,≥ 5000 nM,250 to 1000 nM,≥ 5000 nM,–,CCOc1cc(N2CCC(O)CC2)ccc1Nc1ncc2c(n1)n1c(cc3ccccc31)c(=O)n2C [Compound I-18],250 to 1000 nM
≤ 50 nM,250 to 1000 nM,250 to 1000 nM,250 to 1000 nM,250 to 1000 nM,–,CCN1CCN(c2ccc(Nc3ncc4c(n3)n3c(cc5ccccc53)c(=O)n4C)c(OC)c2)CC1 [Compound I-15],50 to 250 nM
50 to 250 nM,1000 to 5000 nM,1000 to 5000 nM,1000 to 5000 nM,250 to 1000 nM,–,COc1cc(C(=O)N2CCN(C)CC2)ccc1Nc1ncc2c(n1)n1c(cc3ccccc31)c(=O)n2C [Compound I-12],1000 to 5000 nM
50 to 250 nM,50 to 250 nM,1000 to 5000 nM,250 to 1000 nM,1000 to 5000 nM,–,COc1cc(N2CCC(C(N)=O)CC2)ccc1Nc1ncc2c(n1)n1c(cc3ccccc31)c(=O)n2C [Compound I-20],50 to 250 nM
≥ 5000 nM,250 to 1000 nM,≥ 5000 nM,1000 to 5000 nM,≥ 5000 nM,–,CC(C)Oc1cc(N2CCC(O)CC2)ccc1Nc1ncc2c(n1)n1c(cc3ccccc31)c(=O)n2C [Compound I-19],≥ 5000 nM
50 to 250 nM,250 to 1000 nM,≥ 5000 nM,1000 to 5000 nM,≥ 5000 nM,–,CN1CCN(c2ccc(Nc3ncc4c(n3)n3c(cc5ccccc53)c(=O)n4C)c(C(F)(F)F)c2)CC1 [Compound I-13],1000 to 5000 nM
50 to 250 nM,250 to 1000 nM,1000 to 5000 nM,250 to 1000 nM,250 to 1000 nM,–,COc1cc(N2CCC(N3CCN(C)CC3)CC2)ccc1Nc1ncc2c(n1)n1c(cc3ccccc31)c(=O)n2C [Compound I-9],≤ 50 nM
50 to 250 nM,50 to 250 nM,250 to 1000 nM,1000 to 5000 nM,≥ 5000 nM,–,COc1cc(C(=O)N2CCOCC2)ccc1Nc1ncc2c(n1)n1c(cc3ccccc31)c(=O)n2C [Compound I-14],≤ 50 nM

# The next lines start with the molecule.
SMILES,IC50 [1],IC50 [3],IC50 [4],IC50 [5],IC50 [6],IC50 [7],IC50 [2]
CCN1CCN(c2ccc(Nc3ncc4c(n3)n3c(cc5ccccc53)c(=O)n4C)cc2C(F)(F)F)CC1 [Compound I-25],≤ 50 nM,–,–,–,–,–,50 to 250 nM
CCN1CCN(c2ccc(Nc3ncc4c(n3)N3c5ccccc5CC3C(=O)N4C)cc2)CC1 (stereo not drawn) [Compound I-28],50 to 250 nM,–,–,–,–,–,≤ 50 nM
Cn1c(=O)c2cc3ccccc3n2c2nc(Nc3cc(N4CCOCC4)cc(N4CCOCC4)c3)ncc21 [Compound I-21],≤ 50 nM,250 to 1000 nM,250 to 1000 nM,250 to 1000 nM,250 to 1000 nM,–,50 to 250 nM
Cn1c(=O)c2cc3ccccc3n2c2nc(Nc3ccc(N4CCOCC4)nc3)ncc21 [Compound I-22],50 to 250 nM,250 to 1000 nM,250 to 1000 nM,1000 to 5000 nM,250 to 1000 nM,–,50 to 250 nM
Cn1c(=O)c2cc3ccccc3n2c2nc(Nc3ccc(N4CCC(N5CCOCC5)CC4)cc3)ncc21 [Compound I-17],≤ 50 nM,–,50 to 250 nM,250 to 1000 nM,50 to 250 nM,50 to 250 nM,≤ 50 nM
CCn1c(=O)c2cc3ccccc3n2c2nc(Nc3ccc(N4CCN(C)CC4)cc3)ncc21 [Compound I-26],50 to 250 nM,–,–,–,–,–,50 to 250 nM
COc1cc(N2CCOCC2)ccc1Nc1ncc2c(n1)N1c3ccccc3CC1C(=O)N2C (stereo not drawn) [Compound I-33],1000 to 5000 nM,–,–,–,–,–,250 to 1000 nM
CN1C(=O)C2Cc3ccccc3N2c2nc(Nc3ccc(N4CCC(N5CCOCC5)CC4)cc3)ncc21 (stereo not drawn) [Compound I-29],≤ 50 nM,–,–,–,–,–,≤ 50 nM
COc1cc(N2CCN(C)CC2)ccc1Nc1ncc2c(n1)N1c3ccccc3CC1C(=O)N2C (stereo not drawn) [Compound I-30],250 to 1000 nM,–,–,–,–,–,50 to 250 nM
CCN1CCN(c2ccc(Nc3ncc4c(n3)n3c(cc5ccccc53)c(=O)n4C)cc2)CC1 [Compound I-16],≤ 50 nM,250 to 1000 nM,50 to 250 nM,250 to 1000 nM,50 to 250 nM,–,≤ 50 nM
Cn1c(=O)c2cc3ccccc3n2c2nc(Nc3cnn(CC(F)F)c3)ncc21 [Compound I-11],250 to 1000 nM,1000 to 5000 nM,1000 to 5000 nM,≥ 5000 nM,≥ 5000 nM,–,50 to 250 nM
CN1CCN(C2CCN(c3ccc(Nc4ncc5c(n4)n4c(cc6ccccc64)c(=O)n5C)cn3)CC2)CC1 [Compound I-23],≤ 50 nM,250 to 1000 nM,50 to 250 nM,250 to 1000 nM,50 to 250 nM,–,≤ 50 nM
CCn1c(=O)c2cc3ccccc3n2c2nc(Nc3ccc(N4CCN(C)CC4)c(C(F)(F)F)c3)ncc21 [Compound I-27],250 to 1000 nM,–,–,–,–,–,250 to 1000 nM
Cn1c(=O)c2cc3ccccc3n2c2nc(Nc3cnn(CCN4CCOCC4)c3)ncc21 [Compound I-10],50 to 250 nM,1000 to 5000 nM,250 to 1000 nM,≥ 5000 nM,1000 to 5000 nM,–,50 to 250 nM
CN1C(=O)C2Cc3ccccc3N2c2nc(Nc3ccc(N4CCOCC4)cc3)ncc21 (stereo not drawn) [Compound I-32],50 to 250 nM,–,–,–,–,–,50 to 250 nM
CN1C(=O)C2Cc3ccccc3N2c2nc(Nc3cc(N4CCOCC4)cc(N4CCOCC4)c3)ncc21 (stereo not drawn) [Compound I-31],50 to 250 nM,–,–,–,–,–,50 to 250 nM
